What was measured:
[1] = test system: SAGPY Arrowhead (Pygmaea); assay: Preemergence weed control, flooded paddy (Table III); assay type: in vivo, Sagittaria pygmaea; parameters: scale not given here
Description: (§1) Preemergence herbicidal activity under flooded paddy conditions is determined as follows: plant seeds or propagating organs are planted in the top 0.5 cm of silt loam soil in 32 oz. plastic containers with a diameter of 10.5 cm and no drainage holes. Water is added to these containers and maintained at 1.5 to 3 cm above the soil surface for the duration of the experiment. The test compounds are applied as aqueous/acetone mixtures 50/50 v/v pipetted directly into the flood water to give the equivalent of about 0.0313 to 0.500 kg/ha of active ingredient. The treated containers are placed on greenhouse benches and cared for in accordance with conventional greenhouse procedures. Three to four weeks after treatment, the test is terminated and each container is examined and herbicidal effect rated according to the rating system provided in Example 185. The compounds evaluated are reported by compound number given in Example 185.

[2] = test system: Rice, Tebonnet, Oryza sativa; assay: Preemergence herbicidal evaluation, ORYSAT; assay type: in vivo, (L.) Tebonnet; details: 0.2500 kg/ha
How it was run: (§2)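 Preemergence spray, aqueous acetone solution, ~0.0156–0.500 kg/ha, applied to freshly seeded soil cups. Greenhouse, 4–5 wk. Visual 0–9 rating vs untreated control (stand, vigor, malformation, size, chlorosis, overall appearance).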

CYPIR Rice Flatsedge = assay: Preemergence weed control, flooded paddy (Table III); assay type: in vivo, Cyperus iria; parameters: scale not given here
Description: as §1

[3] = test system: Ragweed, Common, Ambrosia artemisifolia; assay: Preemergence herbicidal evaluation, AMBEL; assay type: in vivo, L.; details: 0.2500 kg/ha
How it was run: as §2

[4] = test system: Morningglory Spp., Ipomoea Spp.; assay: Preemergence herbicidal evaluation, IPOSS; assay type: in vivo; details: 0.2500 kg/ha
Source text: (§3) Results of herbicide evaluation are expressed on a rating scale (0-9). The scale is based upon a visual observation of plant stand, vigor, malformation, size, chlorosis and overall plant appearance as compared with a control.
The preemergence herbicidal activity of the test compounds of the present invention is exemplified by the following tests in which the seeds of a variety of monocotyledonous and dicotyledonous plants are separately mixed with potting soil and planted on top of approximately one inch of soil in separate pint cups. After planting, the cups are sprayed with the selected aqueous acetone solution containing test compound in sufficient quantity to provide the equivalent of about 0.0156 to 0.500 kg per hectare of test compound per cup. The treated cups are then placed on greenhouse benches, watered and cared for in accordance with conventional greenhouse procedures. From four to five weeks after treatment, the tests are terminated and each cup is examined and rated according to the rating system provided in Example 185.
The compounds evaluated are reported by compound number given in Example 185.

[5] = test system: Rice, Tebonnet, Oryza sativa; assay: Postemergence herbicidal evaluation, ORYSAT; assay type: in vivo, (L.) Tebonnet; details: 0.2500 kg/ha
How it was run: (§4)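 Rates of about 0.0157–0.500 kg/ha were delivered through a 40 psi spray nozzle to seedlings grown around two weeks, using a 50/50 acetone/water vehicle with 0.5% TWEEN 20. A 0–9 visual score versus control followed 4–5 weeks later.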

[6] = test system: Barnyardgrass, Echinochloa crus-galli; assay: Preemergence herbicidal evaluation, ECHCG; assay type: in vivo, (L.) Beau; details: 0.2500 kg/ha
How it was run: as §2

Corn, Field, Zea mays [7] = assay: Preemergence herbicidal evaluation, ZEAMX; assay type: in vivo, L.; details: 0.2500 kg/ha
How it was run: as §2

CYPSE Flatsedge [8] = assay: Preemergence weed control, flooded paddy (Table III); assay type: in vivo, Cyperus serotinus; parameters: scale not given here
Description: as §1

[9] = test system: ECHORC Watergrass (Calif.); assay: as above; assay type: in vivo, Echinochloa oryzoides; parameters: scale not given here
Description: as §1

[10] = test system: Velvetleaf, Abutilon theophrasti; assay: Postemergence herbicidal evaluation, ABUTH; assay type: in vivo, Medic.; details: 0.2500 kg/ha
How it was run: as §4

Corn, Field, Zea mays [11] = assay: Postemergence herbicidal evaluation, ZEAMX; assay type: in vivo, L.; details: 0.2500 kg/ha
How it was run: as §4

MOOVA Monochoria [12] = assay: Preemergence weed control, flooded paddy (Table III); assay type: in vivo, Monochoria vaginalis; parameters: scale not given here
Description: as §1

[13] = test system: Wheat, Winter, cv Riband, Triticum aestivum; assay: Preemergence herbicidal evaluation, TRZAWR; assay type: in vivo; details: 0.2500 kg/ha
How it was run: as §2

CYPSE Flatsedge [14] = assay: Postemergence weed control, flooded paddy (Table IV); assay type: in vivo, Cyperus serotinus; parameters: scale not given here
How it was run: (§5)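 Weeds 3 to 5 cm tall and rice seedlings at the 1.5 to 2.5 leaf stage were flooded, water held 1.5 to 3 cm above soil. Compounds in 50/50 v/v aqueous/acetone went into the flood water at about 0.0313 to 0.500 kg/ha. Injury was rated visually three to four weeks later.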

MOOVA Monochoria [15] = assay: as above; assay type: in vivo, Monochoria vaginalis; parameters: scale not given here
How it was run: as §5

[16] = test system: Foxtail, Green, Setaria viridis; assay: Preemergence herbicidal evaluation, SETVI; assay type: in vivo, (L.) Beau; details: 0.2500 kg/ha
How it was run: as §2

[17] = test system: Sicklepod, Cassia obtusifolia; assay: Preemergence herbicidal evaluation, CASOB; assay type: in vivo, L.; details: 0.2500 kg/ha
How it was run: as §2

[18] = test system: Sicklepod, Cassia obtusifolia; assay: Postemergence herbicidal evaluation, CASOB; assay type: in vivo, L.; details: 0.2500 kg/ha
How it was run: as §4

[19] = test system: Wheat, Winter, cv Riband, Triticum aestivum; assay: Postemergence herbicidal evaluation, TRZAWR; assay type: in vivo; details: 0.2500 kg/ha
How it was run: as §4

[20] = test system: Morningglory Spp., Ipomoea Spp.; assay: Postemergence herbicidal evaluation, IPOSS; assay type: in vivo; details: 0.2500 kg/ha
Description: In the tests, seedling plants are grown in jiffy flats for about two weeks. The test compounds are dispersed in 50/50 acetone/water mixtures containing 0.5% TWEEN®20, a polyoxyethylene sorbitan monolaurate surfactant of Atlas Chemical Industries, in sufficient quantities to provide the equivalent of about 0.0157 kg to 0.500 kg per hectare of active compound when applied to the plants through a spray nozzle operating at 40 psi for a predetermined time. After spraying, the plants are placed on greenhouse benches and are cared for in accordance with conventional greenhouse procedures. From four to five weeks after treatment, the seedling plants are examined and rated according to the rating system set forth below. Where more than one test is involved for a given compound, the data are averaged.
as §3

`COC(=O)COc1cc(C)ccc1-c1nsc2ccc(-n3c(=O)cc(C(F)(F)F)n(C)c3=O)cc12` [Compound 8, Methyl {{6-{5-[3,6-dihydro-3-methyl-4-(trifluoromethyl)-2,6-dioxo-1(2H)-pyrimidinyl]-1,2-benzisothiazol-3-yl}-m-tolyl}oxy}acetate] showed a herbicidal effect rating ([1]; 0.0313 kg/ha) of 6.0, a herbicidal effect rating ([1]; 0.0625 kg/ha) of 9.0 and a herbicidal effect rating ([1]; 0.1250 kg/ha) of 9.0. The herbicidal effect rating ([1]; 0.2500 kg/ha) was 9.0, the herbicidal effect rating ([1]; 0.5000 kg/ha) was 9.0 and the “herbicide rating (0-9)” value [2] was 9.0. For the same molecule, the herbicidal effect rating (CYPIR Rice Flatsedge; 0.0313 kg/ha) was 9.0, the herbicidal effect rating (CYPIR Rice Flatsedge; 0.0625 kg/ha) was 9.0 and the herbicidal effect rating (CYPIR Rice Flatsedge; 0.1250 kg/ha) was 9.0. For the same molecule, the herbicidal effect rating (CYPIR Rice Flatsedge; 0.2500 kg/ha) was 9.0, the herbicidal effect rating (CYPIR Rice Flatsedge; 0.5000 kg/ha) was 9.0 and the “herbicide rating (0-9)” value [3] was 9.0. For the same molecule, the “herbicide rating (0-9)” value [4] was 9.0, the “herbicide rating (0-9)” value [5] was 8.5 and the “herbicide rating (0-9)” value [6] was 9.0. For the same molecule, the “herbicide rating (0-9)” value (Corn, Field, Zea mays [7]) was 9.0, the herbicidal effect rating (CYPSE Flatsedge [8]; 0.0313 kg/ha) was 4.0 and the herbicidal effect rating (CYPSE Flatsedge [8]; 0.0625 kg/ha) was 9.0. For the same molecule, the herbicidal effect rating (CYPSE Flatsedge [8]; 0.1250 kg/ha) was 9.0, the herbicidal effect rating (CYPSE Flatsedge [8]; 0.2500 kg/ha) was 9.0 and the herbicidal effect rating (CYPSE Flatsedge [8]; 0.5000 kg/ha) was 9.0. It also gave a herbicidal effect rating ([9]; 0.0313 kg/ha) of 9.0, a herbicidal effect rating ([9]; 0.0625 kg/ha) of 9.0 and a herbicidal effect rating ([9]; 0.1250 kg/ha) of 9.0. For the same molecule, the herbicidal effect rating ([9]; 0.2500 kg/ha) was 9.0, the herbicidal effect rating ([9]; 0.5000 kg/ha) was 9.0 and the “herbicide rating (0-9)” value [10] was 9.0. The “herbicide rating (0-9)” value (Corn, Field, Zea mays [11]) was 9.0, the herbicidal effect rating (MOOVA Monochoria [12]; 0.0313 kg/ha) was 9.0 and the herbicidal effect rating (MOOVA Monochoria [12]; 0.0625 kg/ha) was 9.0. The herbicidal effect rating (MOOVA Monochoria [12]; 0.1250 kg/ha) was 9.0, the herbicidal effect rating (MOOVA Monochoria [12]; 0.2500 kg/ha) was 9.0 and the herbicidal effect rating (MOOVA Monochoria [12]; 0.5000 kg/ha) was 9.0. For the same molecule, the “herbicide rating (0-9)” value [13] was 9.0, the herbicidal effect rating (CYPSE Flatsedge [14]; 0.1250 kg/ha) was 7.0 and the herbicidal effect rating (CYPSE Flatsedge [14]; 0.2500 kg/ha) was 7.0. The herbicidal effect rating (CYPSE Flatsedge [14]; 0.5000 kg/ha) was 9.0, the herbicidal effect rating (MOOVA Monochoria [15]; 0.1250 kg/ha) was 9.0 and the herbicidal effect rating (MOOVA Monochoria [15]; 0.2500 kg/ha) was 9.0. The herbicidal effect rating (MOOVA Monochoria [15]; 0.5000 kg/ha) was 9.0, the “herbicide rating (0-9)” value [16] was 9.0 and the “herbicide rating (0-9)” value [17] was 9.0. The “herbicide rating (0-9)” value [18] was 9.0, the “herbicide rating (0-9)” value [19] was 9.0 and the “herbicide rating (0-9)” value [20] was 9.0.
Work on `COC(=O)C(C)Oc1cc(C)ccc1-c1nsc2ccc(-n3c(=O)cc(C(F)(F)F)n(C)c3=O)cc12` (stereo not drawn) [Compound 9, Methyl 2-{{6-{5-[3,6-dihydro-3-methyl-4-(trifluoromethyl)-2,6-dioxo-1(2H)-pyrimidinyl]-1,2-benzisothiazol-3-yl}-m-tolyl}oxy}propionate] yielded a herbicidal effect rating ([1]; 0.0313 kg/ha) of 0.0, a herbicidal effect rating ([1]; 0.0625 kg/ha) of 2.0 and a herbicidal effect rating ([1]; 0.1250 kg/ha) of 8.0. For the same molecule, the herbicidal effect rating ([1]; 0.2500 kg/ha) was 8.0, the herbicidal effect rating ([1]; 0.5000 kg/ha) was 9.0 and the “herbicide rating (0-9)” value [2] was 9.0. For the same molecule, the herbicidal effect rating (CYPIR Rice Flatsedge; 0.0313 kg/ha) was 9.0, the herbicidal effect rating (CYPIR Rice Flatsedge; 0.0625 kg/ha) was 9.0 and the herbicidal effect rating (CYPIR Rice Flatsedge; 0.1250 kg/ha) was 9.0. The herbicidal effect rating (CYPIR Rice Flatsedge; 0.2500 kg/ha) was 9.0, the herbicidal effect rating (CYPIR Rice Flatsedge; 0.5000 kg/ha) was 9.0 and the “herbicide rating (0-9)” value [3] was 9.0. For the same molecule, the “herbicide rating (0-9)” value [4] was 9.0, the “herbicide rating (0-9)” value [5] was 9.0 and the “herbicide rating (0-9)” value [6] was 9.0. For the same molecule, the “herbicide rating (0-9)” value (Corn, Field, Zea mays [7]) was 9.0, the herbicidal effect rating (CYPSE Flatsedge [8]; 0.0313 kg/ha) was 2.0 and the herbicidal effect rating (CYPSE Flatsedge [8]; 0.0625 kg/ha) was 4.0. For the same molecule, the herbicidal effect rating (CYPSE Flatsedge [8]; 0.1250 kg/ha) was 9.0, the herbicidal effect rating (CYPSE Flatsedge [8]; 0.2500 kg/ha) was 9.0 and the herbicidal effect rating (CYPSE Flatsedge [8]; 0.5000 kg/ha) was 9.0. For the same molecule, the herbicidal effect rating ([9]; 0.0313 kg/ha) was 9.0, the herbicidal effect rating ([9]; 0.0625 kg/ha) was 9.0 and the herbicidal effect rating ([9]; 0.1250 kg/ha) was 9.0. The herbicidal effect rating ([9]; 0.2500 kg/ha) was 9.0, the herbicidal effect rating ([9]; 0.5000 kg/ha) was 9.0 and the “herbicide rating (0-9)” value [10] was 9.0. The “herbicide rating (0-9)” value (Corn, Field, Zea mays [11]) was 9.0, the herbicidal effect rating (MOOVA Monochoria [12]; 0.0313 kg/ha) was 9.0 and the herbicidal effect rating (MOOVA Monochoria [12]; 0.0625 kg/ha) was 9.0. For the same molecule, the herbicidal effect rating (MOOVA Monochoria [12]; 0.1250 kg/ha) was 9.0, the herbicidal effect rating (MOOVA Monochoria [12]; 0.2500 kg/ha) was 9.0 and the herbicidal effect rating (MOOVA Monochoria [12]; 0.5000 kg/ha) was 9.0. For the same molecule, the “herbicide rating (0-9)” value [13] was 9.0, the herbicidal effect rating (CYPSE Flatsedge [14]; 0.1250 kg/ha) was 2.0 and the herbicidal effect rating (CYPSE Flatsedge [14]; 0.2500 kg/ha) was 7.0. It also gave a herbicidal effect rating (CYPSE Flatsedge [14]; 0.5000 kg/ha) of 9.0, a herbicidal effect rating (MOOVA Monochoria [15]; 0.1250 kg/ha) of 9.0 and a herbicidal effect rating (MOOVA Monochoria [15]; 0.2500 kg/ha) of 9.0. For the same molecule, the herbicidal effect rating (MOOVA Monochoria [15]; 0.5000 kg/ha) was 9.0, the “herbicide rating (0-9)” value [16] was 9.0 and the “herbicide rating (0-9)” value [17] was 9.0. For the same molecule, the “herbicide rating (0-9)” value [18] was 9.0, the “herbicide rating (0-9)” value [19] was 9.0 and the “herbicide rating (0-9)” value [20] was 9.0.
